The target in data set [1] is Histone deacetylase 1 (Homo sapiens) (UniProt Q13547). The experiment in a line: Inhibition of recombinant human C-terminal His/flag-tagged HDAC1 using Boc-Lys-(Ac)-AMC as substrate after 1 hr by fluorescence assay.
For data set [2], the target named is Histone deacetylase 2 (Homo sapiens) (UniProt Q92769). Put plainly: Inhibition of recombinant human C-terminal flag-tagged HDAC2 using Boc-Lys-(Ac)-AMC as substrate after 1 hr by fluorescence assay.
Data set [3] concerns the target T1, Histone deacetylase 3/Nuclear receptor corepressor 2 (HDAC3/NCoR2) (Homo sapiens) (UniProt O15379+Q9Y618). The experiment in a line: Inhibition of recombinant human C-terminal His-tagged HDAC3/NcoR2 using Boc-Lys-(Ac)-AMC as substrate after 1 hr by fluorescence assay. It counts as protein-complex assay.
The target in data set [4] is Histone deacetylase 1 (Homo sapiens) (UniProt Q13547). The experiment in a line: Inhibition of recombinant human C-terminal His/flag-tagged HDAC1 at 2 to 16 uM using Boc-Lys-(Ac)-AMC as substrate in presence of Lys-C by fluorescence assay. The settings on record: TDE = time-dependent effect.
Data set [5] has as its target Histone deacetylase 2 (Homo sapiens) (UniProt Q92769). Put plainly: Inhibition of recombinant human C-terminal His/flag-tagged HDAC2 at 2 to 16 uM using Boc-Lys-(Ac)-AMC as substrate in presence of Lys-C by fluorescence assay. The settings on record: TDE = time-dependent effect.
Data set [6] deals with T1, Histone deacetylase 3/Nuclear receptor corepressor 2 (HDAC3/NCoR2) (Homo sapiens). Put plainly: Inhibition of recombinant human C-terminal His/flag-tagged HDAC3/NcoR2 at 2 to 16 uM using Boc-Lys-(Ac)-AMC as substrate in presence of Lys-C by fluorescence assay. Type of data set: protein-complex assay. To be noted: TDE = time-dependent effect.
Data set [7] has as its target Histone deacetylase 1 (Homo sapiens) (UniProt Q13547). The experiment in a line: Inhibition of recombinant human C-terminal His/flag-tagged HDAC1 at 2 to 16 uM using Boc-Lys-(Ac)-AMC as substrate preincubated for 1 hr followed by substrate addition in presence of Lys-C by fluorescence assay.
The target in data set [8] is Histone deacetylase 2 (Homo sapiens) (UniProt Q92769). The experiment in a line: Inhibition of recombinant human C-terminal His/flag-tagged HDAC2 at 2 to 16 uM using Boc-Lys-(Ac)-AMC as substrate preincubated for 1 hr followed by substrate addition in presence of Lys-C by fluorescence assay.
Data set [9] deals with T1, Histone deacetylase 3/Nuclear receptor corepressor 2 (HDAC3/NCoR2) (Homo sapiens). The experiment in a line: Inhibition of recombinant human C-terminal His/flag-tagged HDAC3/NcoR2 at 2 to 16 uM using Boc-Lys-(Ac)-AMC as substrate preincubated for 1 hr followed by substrate addition in presence of Lys-C by fluorescence assay. It counts as protein-complex assay.
For data set [10], the system named is RAW264.7. The experiment in a line: Cytotoxicity against LPS/IFNgamma-stimulated mouse RAW264.7 cells assessed as decrease in cell viability incubated for 16 hrs followed by LPS/IFNgamma stimulation for last 4 hrs by MTS assay. It counts as cell-based. The settings on record: raw264.7, 16 h. On the technique in general: Tetrazolium assays rely on reduction of a dye to a coloured formazan, in cell work by metabolically active cells.

For data set [11], the target named is Transcription factor p65 (Mus musculus) (UniProt Q04207). Put plainly: Inhibition of NF-kappaB p65 transcriptional activity in LPS/IFNgamma-stimulated mouse RAW264.7 cells at 10 uM incubated for 20 hrs followed by LPS/IFNgamma stimulation for last 4 hrs by SEAP reporter gene assay. It counts as cell-based. A general note: Reporter assays use an easily measured gene product as a stand-in for the process of interest.
Sequence of Transcription factor p65 (Mus musculus) (Q04207 whole entry): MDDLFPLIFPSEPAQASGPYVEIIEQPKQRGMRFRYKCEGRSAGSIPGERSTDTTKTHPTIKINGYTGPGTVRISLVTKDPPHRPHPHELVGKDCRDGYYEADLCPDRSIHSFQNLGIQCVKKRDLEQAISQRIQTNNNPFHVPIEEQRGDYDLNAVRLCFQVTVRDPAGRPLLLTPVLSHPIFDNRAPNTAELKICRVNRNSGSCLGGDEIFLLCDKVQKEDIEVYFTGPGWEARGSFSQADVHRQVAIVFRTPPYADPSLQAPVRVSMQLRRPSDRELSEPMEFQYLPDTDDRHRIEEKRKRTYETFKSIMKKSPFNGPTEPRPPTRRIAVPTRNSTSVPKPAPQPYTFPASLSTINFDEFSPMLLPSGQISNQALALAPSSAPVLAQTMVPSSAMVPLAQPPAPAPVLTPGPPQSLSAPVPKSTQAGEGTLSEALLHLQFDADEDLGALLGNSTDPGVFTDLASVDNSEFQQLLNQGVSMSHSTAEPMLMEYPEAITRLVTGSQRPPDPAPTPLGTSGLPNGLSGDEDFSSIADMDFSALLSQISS

Data set [12] shares this target. Put plainly: Inhibition of NF-kappaB p65 transcriptional activity in LPS/IFNgamma-stimulated mouse RAW264.7 cells at 1 to 5 uM incubated for 20 hrs followed by LPS/IFNgamma stimulation for last 4 hrs by SEAP reporter gene assay. It counts as cell-based.
Data set [13] has the same target. Put plainly: Inhibition of NF-kappaB p65 nuclear translocation in LPS/IFNgamma-stimulated mouse RAW264.7 cells at 1 uM incubated for 20 hrs followed by LPS/IFNgamma addition measured after 1 hr by Hoechst 33342 staining based immunofluorescence microscopy. It counts as cell-based.
For data set [14], the system named is RAW264.7. Put plainly: Antiinflammatory activity in LPS/IFNgamma-stimulated mouse RAW264.7 cells assessed as decrease in iNOS mRNA level at 10 uM incubated for 20 hrs followed by LPS/IFNgamma stimulation for last 4 hrs by qRT-PCR analysis. It counts as functional, cell-based. A general note: In qPCR the cycle at which signal appears reflects the starting amount.

The test system of data set [15] is RAW264.7. The experiment in a line: Antiinflammatory activity in LPS/IFNgamma-stimulated mouse RAW264.7 cells assessed as decrease in TNFalpha mRNA level incubated for 20 hrs followed by LPS/IFNgamma stimulation for last 4 hrs by qRT-PCR analysis. It counts as functional, cell-based.
Data set [16] deals with RAW264.7. The experiment in a line: Antiinflammatory activity in LPS/IFNgamma-stimulated mouse RAW264.7 cells assessed as decrease in IL-6 mRNA level incubated for 20 hrs followed by LPS/IFNgamma stimulation for last 4 hrs by qRT-PCR analysis. It counts as functional, cell-based.
The test system of data set [17] is RAW264.7. Put plainly: Antiinflammatory activity in LPS/IFNgamma-stimulated mouse RAW264.7 cells assessed as decrease in IL-6 mRNA level at 10 uM incubated for 20 hrs followed by LPS/IFNgamma stimulation for last 4 hrs by qRT-PCR analysis. It counts as functional. Set-up: scale not given: the % may be the effect or the level left.
In data set [18] the test system is RAW264.7. Put plainly: Antiinflammatory activity in LPS/IFNgamma-stimulated mouse RAW264.7 cells assessed as decrease in IL-1beta mRNA level at 1 to 10 uM incubated for 20 hrs followed by LPS/IFNgamma stimulation for last 4 hrs by qRT-PCR analysis. It counts as functional, cell-based.
Data set [19] relates to RAW264.7. The experiment in a line: Antiinflammatory activity in LPS/IFNgamma-stimulated mouse RAW264.7 cells assessed as decrease in IL-12b mRNA level at 1 to 10 uM incubated for 20 hrs followed by LPS/IFNgamma stimulation for last 4 hrs by qRT-PCR analysis. It counts as functional, cell-based.
Data set [20] deals with T2, Histone deacetylase 8 (Homo sapiens) (UniProt Q9BY41).
T2 sequence (whole entry): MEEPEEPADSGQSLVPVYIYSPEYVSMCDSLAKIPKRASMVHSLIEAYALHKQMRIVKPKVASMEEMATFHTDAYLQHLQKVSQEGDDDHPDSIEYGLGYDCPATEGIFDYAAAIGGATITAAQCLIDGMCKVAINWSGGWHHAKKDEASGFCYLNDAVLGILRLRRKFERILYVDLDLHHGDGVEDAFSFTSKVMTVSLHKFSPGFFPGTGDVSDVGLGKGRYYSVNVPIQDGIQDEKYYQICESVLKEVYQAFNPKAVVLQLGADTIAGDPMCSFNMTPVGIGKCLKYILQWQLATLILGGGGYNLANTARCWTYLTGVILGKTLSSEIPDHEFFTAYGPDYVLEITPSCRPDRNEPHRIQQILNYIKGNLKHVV
The experiment in a line: Inhibition of recombinant human C-terminal His-tagged HDAC8 up to 50 uM using Boc-Lys-(Ac)-AMC as substrate after 1 hr by fluorescence assay.

The term inhibition denotes the relative decrease from the control value, in per cent.

The structures appear in SMILES notation. Activity calls are given as the source filed them. No cut-off for these calls is given here.

Sequence of Histone deacetylase 2 (Homo sapiens) (Q92769 whole entry): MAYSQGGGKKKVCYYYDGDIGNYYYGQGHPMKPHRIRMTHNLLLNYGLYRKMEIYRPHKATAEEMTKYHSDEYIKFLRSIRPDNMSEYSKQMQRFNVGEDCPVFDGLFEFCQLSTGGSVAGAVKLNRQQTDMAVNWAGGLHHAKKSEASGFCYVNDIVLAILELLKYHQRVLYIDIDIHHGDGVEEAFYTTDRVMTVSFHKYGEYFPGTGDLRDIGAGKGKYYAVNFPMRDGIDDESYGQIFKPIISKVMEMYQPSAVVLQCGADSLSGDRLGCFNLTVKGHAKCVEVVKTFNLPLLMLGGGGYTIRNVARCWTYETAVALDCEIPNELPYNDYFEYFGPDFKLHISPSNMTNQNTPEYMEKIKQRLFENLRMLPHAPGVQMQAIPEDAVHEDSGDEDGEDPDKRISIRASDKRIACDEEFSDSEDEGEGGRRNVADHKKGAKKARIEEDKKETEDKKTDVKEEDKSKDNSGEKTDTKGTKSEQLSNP
Sequence of Histone deacetylase 1 (Homo sapiens) (Q13547 whole entry): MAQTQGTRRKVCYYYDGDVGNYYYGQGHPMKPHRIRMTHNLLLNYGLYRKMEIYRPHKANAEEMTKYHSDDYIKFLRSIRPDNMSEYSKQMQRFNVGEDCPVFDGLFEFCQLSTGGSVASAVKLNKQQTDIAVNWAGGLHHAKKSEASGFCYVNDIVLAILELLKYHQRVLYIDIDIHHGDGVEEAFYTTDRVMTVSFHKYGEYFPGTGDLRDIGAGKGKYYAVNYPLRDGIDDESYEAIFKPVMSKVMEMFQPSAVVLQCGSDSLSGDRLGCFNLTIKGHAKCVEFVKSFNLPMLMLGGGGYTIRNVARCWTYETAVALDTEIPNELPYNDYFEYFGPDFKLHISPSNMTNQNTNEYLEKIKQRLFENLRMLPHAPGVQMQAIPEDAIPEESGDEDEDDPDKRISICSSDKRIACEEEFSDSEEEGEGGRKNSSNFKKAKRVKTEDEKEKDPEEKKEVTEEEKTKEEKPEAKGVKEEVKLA

For `Nc1ccccc1NC(=O)c1ccc(CNc2cccc(/N=N/c3ccccc3)c2)cc1`, the inhibition result in data set [1], in data set [2], in data set [3], in [7], in data set [8] and in data set [9] was “Active” each time. Moreover, the inhibition result in data set [4], in data set [5] and in [6] was “Tde” each time. Moreover, the Activity entry in the data set with RAW264.7 [10] is on record as “Non-Toxic”. The inhibition entry in data set [11], in data set [12] and in data set [13] was “inactive” throughout. The result in the data set with RAW264.7 [14] was inactive.
Turning to `Nc1ccccc1NC(=O)c1ccc(CNc2ccc(/N=N/c3ccccc3)cc2)cc1`, the inhibition entry in [1], in data set [2], in [3], in [7], in data set [8] and in [9] was “Active” in each case. Moreover, the inhibition result in [13] is “Active”. Besides, the inhibition entry in [4] is “Tde”; in data set [5] it was “Tde”; in [6], “Tde”; in data set [11] it was below 50%. Moreover, the Activity entry was “Non-Toxic” in the data set on RAW264.7 [10], “Dose-dependent effect” with RAW264.7 [15], “Dose-dependent effect” in the data set with RAW264.7 [16] and 90% in the data set on RAW264.7 [17]. The result with RAW264.7 [14], in the data set with RAW264.7 [18] and with RAW264.7 [19] was Active.
As for `CC(C)(C)OC(=O)Nc1ccccc1NC(=O)c1ccc(CNc2ccccc2/N=N/c2ccccc2)cc1`, in data set [20], the inhibition result was “inactive”. In addition, the inhibition entry in [1], in data set [2], in data set [3], in [7], in data set [8] and in data set [9] was “Active” each time. Also, in [13], the inhibition result is “Active”. Besides, the inhibition result in [4] is “Tde”; in data set [5], “Tde”; in data set [6], “Tde”; in data set [11], below 50%. Also, the Activity result in the data set with RAW264.7 [10] is on record as “Non-Toxic”. Also, in the data set with RAW264.7 [14], the outcome was inactive.
As for `Nc1ccccc1NC(=O)c1ccc(CNc2ccccc2/N=N/c2ccccc2)cc1`, in data set [20], the inhibition result is “inactive”.

The values above are taken from ChEMBL document CHEMBL4190172 (Medchemcomm, 2016).
